Experiments:
TNF-α = TNF-α mRNA expression in LPS-induced primary mouse fibroblasts; format: cell-based; conditions: LPS 0.5 μg/mL 24 h; DLSKEPSISRE 0.05 mg/mL or metformin 1 mM
Description: (§1) The study was carried out in primary mouse fibroblasts. Isolation of fibroblasts was carried out with techniques described earlier (See Example 1). Fibroblasts were cultured for 3 days. The following stressors were applied separately: bacterial lipopolysaccharides (LPS), high glucose in the incubation medium, and serum-free incubation medium.
(§2) LPS is a major outer surface membrane component that induces an inflammatory response in cells.
(§3) Isolation of mRNA, synthesis of the first strand of cDNA, and RT-PCR were performed with techniques described earlier (See Example 1). Expression levels of IRS2, TNF-α, IL-6, and GSK3p (WNT-pathway) were analyzed.
(§4) The study was carried out in primary mouse fibroblasts. Isolation of fibroblasts was carried out with techniques described earlier (See Example 1). Incubation of fibroblasts with 100 μM individual peptides and 0.5 μg/mL LPS was carried out for 24 hours. Each treatment group was represented in two biological replicates.
(§5) Isolation of mRNA, synthesis of the first strand of cDNA, and RT-PCR were performed with techniques described earlier (See Example 1). Expression levels of RPL27, TNF-α, IL-6, and IRS2 genes were analyzed.

IL-6 = IL-6 mRNA expression in LPS-induced primary mouse fibroblasts; format: cell-based; conditions: LPS 0.5 μg/mL 24 h; DLSKEPSISRE 0.05 mg/mL or metformin 1 mM
Description: as §1, §2, §3, §4, §5

[1] = test system: C57BL/6 mice on a high-fat diet; assay: Glucose tolerance test in mice on high-fat diet (HFD), acute administration; format: in vivo, mouse; conditions: Metformin 250 mg/kg single p.o.
Description: (§6) A standard laboratory rodent pellet SNIFF RI/M-H V1534-30 (58% carbohydrates, 9% fat, 33% protein, 306 kcal/100 g) was given ad libitum to the control animals. For HFD groups, the high-fat feed was used. For 1 kg of feed, 610 g of ground SNIFF feed and 360 g of melted pork lard were taken, water (˜250 ml, 60-70° C.), 10 g of sodium chloride, 30 g of sodium glutamate were added. The mixture was brewed to a dough consistency, and food granules were formed. Then the granules were dried at 60-70° C. for 10-12 hours. The finished food for consumption was transferred to the animal-keeping area. The prepared food was stored at 4° C. for no more than 7 days. The approximate energy value of the HFD feed was 516 kcal/100 g (45% fat, 35% carbohydrates, 20% protein).
(§7) The metabolic syndrome was modeled by keeping animals on a HFD for 16 weeks. The control group was kept on a standard diet (STD) during this period. Animals had free access to feed and water located in the cage lid.
At stage 1 of the study, to replicate the metabolic syndrome, 25 mice were kept on a STD (group 1), 140 mice—on a HFD (groups 2-5). The animals' body weight was monitored weekly. By the end of the 16th week, mice with the maximum gain were selected among the animals kept on a HFD, and four groups of 25 animals were formed.
On the day of the experiment, animals from groups 3-5 were injected with the tested substances: one half of the group (12 or 13 animals) 2 hours before the experiment and the other half—12 hours. Group 1 and 2 (STD control and HFD control) were injected with saline (Table 5).
(§8) The administration volume was 10 ml/kg for drugs administered i.p., 6 μl/animal for i.n. administration and 5 ml/kg for drugs administered p.o.
The animals were deprived of food for 12 hours before the glucose tolerance test and euthanasia. Animals had free access to water.
The animals were deprived of food for 12 hours before the test. Baseline glucose level was measured at the end of fasting (0 min time point) in the blood drop taken from the tip of the tail by incision (with a needle) of the tail vein. The test substances were administered according to the treatment group. Half of the animals received drug injections 2 hours, and the other half—12 hours before the test. The glucose concentration in the blood was determined 15, 30, 60, 120 minutes after i.p. 40% glucose solution administration in a dose of […] with Satellite Express (Elta, Russia) test system.

[2] = test system: C57BL/6 mice on a high-fat diet; assay: Chronic 28-day administration in HFD mice: bodyweight, water and feed consumption; format: in vivo, mouse; conditions: for Weekly food consumption / Weekly water consumption: Metformin 250 mg/kg p.o. daily
Description: as §6, §7
(§9) Groups of 10 animals were formed from the existing groups from Stage 2, with similar mean body weight (Table 6). The animals' bodyweight was monitored three times a week, water, and feed consumption—weekly. After the last treatment, the animals were euthanized for necropsy and their blood collected. The internal organs were examined for the presence of macro damage and weighed. The adipose tissue surrounding the epididymis was evaluated as a marker of obesity in animals. For histological examination, samples of adipose tissue and liver tissue were fixed in 10% formalin solution for further histological analysis.
as §8
The animals were weighed weekly on weeks 1-16 of the experiment (1-120 days of the study), during the administration of the tested substances (121-148 days)—three times a week. The bodyweight of a hungry animal immediately before necropsy was taken to calculate the percentage of organ weight to body weight.
Each animal's food and water consumption was evaluated weekly by weighing the grid with food or a bottle of water before and after 24 hours.

[3] = test system: C57BL/6 mice on a high-fat diet; assay: Tolerability observations in HFD mice study; format: in vivo, mouse; conditions: metformin 250 mg/kg p.o.
Description: as §9
During necropsy, the body's external state, internal surfaces, the cranial cavity, chest, abdominal and pelvic cavities with organs and tissues located in them, the neck with organs and tissues, the skeleton, and the musculoskeletal system were examined. The organs and tissues were fixed in 10% formalin. Liver and adipose tissue samples were weighed and stored in 10% formalin for subsequent histological analysis.

## CN(C)C(=N)N=C(N)N [Metformin]
TNF-α
  LPS-induced expression of TNF-α: similarly
IL-6
  LPS-induced expression of IL-6: similarly
[1]; 2 h post-treatment
  AUC of glucose in GTT: 1808 ± 131 mmol/L/min
[1]; 2 h post-treatment, 0 min (basal)
  glucose concentration in GTT: 7.2 ± 0.374 mmol/L
[1]; 2 h post-treatment, 60 min after glucose
  glucose concentration in GTT: 15.55 ± 1.46 mmol/L
[1]; 2 h post-treatment, 120 min after glucose
  glucose concentration in GTT: 10.08 ± 0.875 mmol/L
[1]; 12 h post-treatment
  AUC of glucose in GTT: 1857 ± 149 mmol/L/min
[1]; 12 h post-treatment, 0 min
  glucose concentration in GTT: 7.0 ± 0.7 mmol/L
[1]; 12 h post-treatment, 60 min after glucose
  glucose concentration in GTT: 15.7 ± 1.8 mmol/L
[1]; 12 h post-treatment, 120 min after glucose
  glucose concentration in GTT: 11.2 ± 1.4 mmol/L
[2]; Metformin 250 mg/kg p.o. daily from day 122, day 122
  Bodyweight during the period the test substance administration: 34.3 ± 0.7 grams
[2]; Metformin 250 mg/kg p.o. daily from day 122, day 124
  Bodyweight during the period the test substance administration: 33.9 ± 0.7 grams
[2]; Metformin 250 mg/kg p.o. daily from day 122, day 126
  Bodyweight during the period the test substance administration: 33.4 ± 0.8 grams
[2]; Metformin 250 mg/kg p.o. daily from day 122, day 129
  Bodyweight during the period the test substance administration: 32.9 ± 0.7 grams
[2]; Metformin 250 mg/kg p.o. daily from day 122, day 131
  Bodyweight during the period the test substance administration: 33.1 ± 0.7 grams
[2]; Metformin 250 mg/kg p.o. daily from day 122, day 133
  Bodyweight during the period the test substance administration: 33.1 ± 0.8 grams
[2]; Metformin 250 mg/kg p.o. daily from day 122, day 136
  Bodyweight during the period the test substance administration: 32.4 ± 1.1 grams
[2]; Metformin 250 mg/kg p.o. daily from day 122, day 138
  Bodyweight during the period the test substance administration: 32.2 ± 1.1 grams
[2]; Metformin 250 mg/kg p.o. daily from day 122, day 141
  Bodyweight during the period the test substance administration: 32.9 ± 0.9 grams
[2]; Metformin 250 mg/kg p.o. daily from day 122, day 144
  Bodyweight during the period the test substance administration: 33.2 ± 1.0 grams
[2]; Metformin 250 mg/kg p.o. daily from day 122, day 147
  Bodyweight during the period the test substance administration: 33.5 ± 1.0 grams
[2]; Week 1
  Weekly food consumption: 458.4 ± 55.4 kcal/kg/day
  Weekly water consumption: 0.1095 ± 0.0109 mL/min/kg
[2]; Week 2
  Weekly food consumption: 758.4 ± 51.4 kcal/kg/day
  Weekly water consumption: 0.1199 ± 0.00944 mL/min/kg
[2]; Week 3
  Weekly food consumption: 567.6 ± 21.3 kcal/kg/day
  Weekly water consumption: 0.1505 ± 0.0169 mL/min/kg
[2]; Week 4
  Weekly food consumption: 709.4 ± 22.7 kcal/kg/day
  Weekly water consumption: 0.182 ± 0.0183 mL/min/kg
[2]; Metformin p.o., chronic 4-week
  decrease in weight compared to values before substance administration: 7.6%
[2]; day 112, baseline, group 5 Metformin p.o.
  Animal body weight before the administration of the tested substances: 36.94 ± 0.954 grams
[2]; metformin chronic administration, compared with EPSI i.n.
  loss of excess body weight (normalized to HFD control): comparable
[3]
  death of animals after administration: 2 animals
  deviations in the state of health observed after the first injection: hunching, tremor, weight loss

— patent US20250177473A1, “PEPTIDE REGULATORS OF METABOLISM” (Metabico, Inc., priority 2022, published 2025)
